The record followed here is US9206136B2, “Pyrazolyl-based carboxamides I” (Grünenthal GmbH, priority 2013, dated 2015).

Assay [1] has as its target T1, CRAC channel (endogenous SOC in HEK293 cells) (Homo sapiens, UniProt Q96D31).
T1 construct: host or cells: HEK293
Put plainly: HEK Calcium Influx Assay (FLIPR). In kind it is cell-based. Conditions: 10 μM compound, thapsigargin store depletion, Ca2+ signal 9.5-10 min post-administration, read-out: % inhib. [@ 10 μM] FLIPR. How it is done:
Compounds of the invention have been tested for their effects on CRAC channels according to the following or similar procedures.
The effect of compounds of the invention on intracellular [Ca^2+] was tested in the HEK293 cell line (ECACC).
HEK293 cells were cultured in DMEM/F12/Glutamax (Gibco) containing 10% FCS (Gibco), and maintained at 37° C., 5% CO2. Cell were split twice a week [3·10^6 (Mon-Thu) and 1·10^6 (Thu-Mon) cells/50 ml medium in T-175 ZK culture flasks, respectively]. 24 hours pre-experiment, cells were seeded on 96 well plates (Poly-D-Lysine 96well Black/Clear Plate, BD Biocoat REF 356640) at a density of 40,000 cells/well in DMEM/F12 (Gibco) containing 10% FCS (Gibco), and maintained at 37° C., 5% CO2.
Prior to store-depletion, cell culture medium was removed and cells were loaded with the a Ca^2+-sensitive fluorescent dye comprised within the Calcium-4-assay kit (Molecular Devices) in nominally Ca^2+-free HBS buffer (140 mM NaCl, 4 mM KCl, 0.2 mM MgCl2, 11 mM D-glucose, and 10 mM HEPES, pH 7.4) according to manufacturer's instruction for 60 min at 37° C., 5% CO2.
Passive depletion of intracellular Ca^2+-stores was then triggered by employing the SERCA inhibitor thapsigargin (2 μM final) for 10 min in the dark (rt). To prevent immediate Ca^2+-entry via the activated Store-operated channels (SOCs), cells were maintained in Ca^2+-free HBS buffer comprising 100 μM EGTA during store-depletion.
Intracellular changes in [Ca^2+] were subsequently monitored with the FLIPR device (Molecular Devices). In brief, baseline imaging post-store depletion was allowed for 1 min before adjusting the extracellular buffer to 3 mM CaCl2. Increases in intracellular [Ca^2+] due to pre-activated SOC channels were monitored for 15 min until intracellular Ca^2+ levels had declined into a steady-state. Finally, compounds were administered and Ca^2+ signals were recorded for additional 10 min.
Inhibition of endogenous SOC in HEK293 cells was quantified employing the average Ca^2+ signal measured from 9.5-10 min post-administration. Zero percent inhibition (MAX) was defined as the Ca^2+ signal recorded from wells to which DMSO-only had been added instead of compound. Hundred percent inhibition (MIN) was defined as the signal obtained from wells in which cells haven't been treated with TG prior to Ca^2+ addition and to which DMSO-only had been added instead of compound. For routine IC50 determinations of compounds, 8 concentrations of a serial dilution (1:3.16) were tested, starting off from 10 μM. Reliable IC50's could consequently be determined only, if they were at least sub 2.5-3 μM.

Assay [2] has as its system Interleukin-2 (IL-2) production/release in Jurkat T cell line clone E6-1. Put plainly: Jurkat IL-2 Production Assay. Conditions: Homo sapiens; Jurkat T cells stimulated with 15 μg/ml PHA for 22 hours; IL-2 in supernatant (AlphaLisa). It is filed as cell-based. Here is the method: Jurkat IL-2 Production Assay
The effect of compounds of the invention on Interleukin-2 (IL-2) production/release was tested in the Jurkat T cell line (ECACC) clone E6-1.
Jurkat T cells were cultured in DMEM/F12/Glutamax (Gibco) containing 10% FCS (Gibco), and maintained at 37° C., 5% CO2. Cells were split twice a week [5·10^6 (Mon-Thu) and 1·10^7 (Thu-Mon) cells/50 ml medium in T-175 ZK culture flasks, respectively].
Prior to experiment, cells were seeded on 96 well plates (Cellstar 96 Well; Cat No. 655180, Greiner bio-one) at a density of 5·10^5 cells/well in DMEM/F12/Glutamax (Gibco) containing 10% FCS (Gibco), and incubated for 60 min at 37° C., 5% CO2. Subsequently, compounds were added and cells were allowed to incubate for 30 min at 37° C., 5% CO2. Cells were then stimulated with 15 μg/ml Phyto-hemagglutinin (PHA; Sigma) for 22 hours at 37° C., 5% CO2.
Before sampling of the supernatants, cells were spun down (200*g/5 min/RT). The amount of IL-2 released into the supernatant was quantified with the human IL-2 AlphaLisa kit (Perkin Elmer) according to manufacturer's instructions. Luminescence proximity measurements were carried out in the Synergy H4 reader (BioTek) employing the fluorescence setting of the reader (ex: 680/30 nm; em: 620/40 nm).
Inhibition of IL-Production/Release in/from Jurkat T Cells Cells was Quantified as Follows:
Zero percent inhibition (MAX) was defined as the [IL-2] determined in supernatants derived from cells to which PHA & DMSO-only had been added instead of compound. Hundred percent inhibition (MIN) was defined as the [IL-2] determined in supernatants derived from cells that had been pre-treated with 1 μM CyclosporineA (Sigma) before the addition of 15 μg/ml PHA.
For routine IC50 determinations of compounds, 8 concentrations of a serial dilution (1:3.16) were tested, starting off from 10 μM.
For orientation: Alpha assays give light when donor and acceptor beads are brought close together.

Structures are written as SMILES. Some results are limits rather than exact numbers.

T1 sequence (Q96D31 whole entry): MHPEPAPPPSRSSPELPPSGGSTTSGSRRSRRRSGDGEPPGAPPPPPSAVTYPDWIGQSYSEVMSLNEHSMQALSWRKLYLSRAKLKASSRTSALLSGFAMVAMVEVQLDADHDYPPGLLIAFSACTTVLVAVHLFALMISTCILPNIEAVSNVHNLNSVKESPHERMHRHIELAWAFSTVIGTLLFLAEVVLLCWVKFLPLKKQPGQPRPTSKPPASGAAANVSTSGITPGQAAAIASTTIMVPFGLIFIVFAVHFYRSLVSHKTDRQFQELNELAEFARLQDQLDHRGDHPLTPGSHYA

The term IC50 denotes the concentration that inhibits the measured activity by half. For the molecule `Cc1ccc(-c2nccs2)cc1-c1cc(C(=O)Nc2ccncc2F)nn1C` [Example 1, N-(3-Fluoro-pyridin-4-yl)-1-methyl-5-(2-methyl-5-thiazol-2-yl-phenyl)-1H-pyrazole-3-carboxylic acid amide], the inhibition at 10 µM in assay [1] was more than 70%. Further, in assay [2], the IC50 was 1 to 5 µM. Regarding `Cc1ccc(-c2ncco2)cc1-c1cc(C(=O)Nc2ccncc2F)nn1C` [Example 2, N-(3-Fluoro-pyridin-4-yl)-1-methyl-5-(2-methyl-5-oxazol-2-yl-phenyl)-1H-pyrazole-3-carboxylic acid amide], the inhibition at 10 µM in assay [1] was 50 to 70%. With `Cc1ccc(-c2nccs2)cc1-c1cc(C(=O)Nc2c(F)cccc2F)nn1C` [Example 3, N-(2,6-Difluoro-phenyl)-1-methyl-5-(2-methyl-5-thiazol-2-yl-phenyl)-1H-pyrazole-3-carboxylic acid amide], the inhibition at 10 µM in assay [1] was less than 50%. For the same molecule, in assay [2], the IC50 was less than 0.5 µM. Taken in the same sequence, the figures for `COc1ccc(NC(=O)c2cc(-c3cc(-c4nccs4)ccc3C)n(C)n2)cc1` [Example 4, N-(4-Methoxyphenyl)-1-methyl-5-(2-methyl-5-thiazol-2-yl-phenyl)-1H-pyrazole-3-carboxylic acid amide] were 50 to 70% and 1 to 5 µM. The like results for `Cc1ccc(-c2nccs2)cc1-c1cc(C(=O)Nc2ccc(F)cc2)nn1C` [Example 5, N-(4-Fluorophenyl)-1-methyl-5-(2-methyl-5-thiazol-2-yl-phenyl)-1H-pyrazole-3-carboxylic acid amide] were, in that order, 50 to 70% and 1 to 5 µM. Taken in the same sequence, the figures for `Cc1cnccc1NC(=O)c1cc(-c2cc(-c3nccs3)ccc2C)n(C)n1` [Example 6, 1-Methyl-N-(3-methyl-pyridin-4-yl)-5-(2-methyl-5-thiazol-2-yl-phenyl)-1H-pyrazole-3-carboxylic acid amide] were 50 to 70% and 1 to 5 µM. For `COc1ccc(-c2nccs2)cc1-c1cc(C(=O)Nc2ccncc2F)nn1C` [Example 7, N-(3-Fluoro-pyridin-4-yl)-5-(2-methoxy-5-thiazol-2-yl-phenyl)-1-methyl-1H-pyrazole-3-carboxylic acid amide], the inhibition at 10 µM in assay [1] was less than 50%. Moreover, in assay [2], the IC50 was 0.5 to 1 µM.

Regarding `COc1ccc(-c2nccs2)cc1-c1cc(C(=O)Nc2c(F)cccc2F)nn1C` [Example 8, N-(2,6-Difluoro-phenyl)-5-(2-methoxy-5-thiazol-2-yl-phenyl)-1-methyl-1H-pyrazole-3-carboxylic acid amide], the inhibition at 10 µM in assay [1] was more than 70%. In addition, in assay [2], the IC50 fell in the range of 0.5 to 1 µM. Consider `Cn1nc(C(=O)Nc2ccncc2F)cc1-c1cc(-c2nccs2)ccc1Cl` [Example 9, 5-(2-Chloro-5-thiazol-2-yl-phenyl)-N-(3-fluoro-pyridin-4-yl)-1-methyl-1H-pyrazole-3-carboxylic acid amide], for which the inhibition at 10 µM in assay [1] fell in the range of 50 to 70%. Moreover, the concentration for half-maximal inhibition (IC50) in assay [2] lay within 1 to 5 µM. Taken in the same sequence, the figures for `Cn1nc(C(=O)Nc2c(F)cccc2F)cc1-c1cc(-c2nccs2)ccc1Cl` [Example 10, 5-(2-Chloro-5-thiazol-2-yl-phenyl)-N-(2,6-difluoro-phenyl)-1-methyl-1H-pyrazole-3-carboxylic acid amide] were less than 50% and less than 0.5 µM. As to `Cc1ccc(-c2ccncc2)cc1-c1cc(C(=O)Nc2ccncc2F)nn1C` [Example 11, N-(3-Fluoro-pyridin-4-yl)-1-methyl-5-(2-methyl-5-pyridin-4-yl-phenyl)-1H-pyrazole-3-carboxylic acid amide], in assay [1], the inhibition at 10 µM was more than 70%. Also, in assay [2], the half-inhibitory concentration (IC50) was in the range of 1 to 5 µM. Taken in the same sequence, the figures for `Cc1ccc(-c2ccncc2)cc1-c1cc(C(=O)Nc2c(F)cccc2F)nn1C` [Example 12, N-(2,6-Difluoro-phenyl)-1-methyl-5-(2-methyl-5-pyridin-4-yl-phenyl)-1H-pyrazole-3-carboxylic acid amide] were more than 70% and less than 0.5 µM. Taken in the same sequence, the figures for `Cc1ccc(-c2cncnc2)cc1-c1cc(C(=O)Nc2c(F)cccc2F)nn1C` [Example 13, N-(2,6-Difluoro-phenyl)-1-methyl-5-(2-methyl-5-pyrimidin-5-yl-phenyl)-1H-pyrazole-3-carboxylic acid amide] were less than 50% and less than 0.5 µM. Taken in the same sequence, the figures for `Cn1nc(C(=O)Nc2c(F)cccc2F)cc1-c1cccc(-c2nccs2)c1` [Example 14, N-(2,6-Difluoro-phenyl)-1-methyl-5-(3-thiazol-2-yl-phenyl)-1H-pyrazole-3-carboxylic acid amide] were more than 70% and less than 0.5 µM. Take `COc1ccc(C2CC2)cc1-c1cc(C(=O)Nc2ccncc2F)nn1C` [Example 15, 5-(5-Cyclopropyl-2-methoxy-phenyl)-N-(3-fluoro-pyridin-4-yl)-1-methyl-1H-pyrazole-3-carboxylic acid amide]: in assay [1], the inhibition at 10 µM was more than 70%. Also, the IC50 in assay [2] fell in the range of 1 to 5 µM. Taken in the same sequence, the figures for `COc1ccc(C2CC2)cc1-c1cc(C(=O)Nc2c(F)cccc2F)nn1C` [Example 16, 5-(5-Cyclopropyl-2-methoxy-phenyl)-N-(2,6-difluoro-phenyl)-1-methyl-1H-pyrazole-3-carboxylic acid amide] were more than 70% and less than 0.5 µM.

For `Cc1cnc(C2CC2)nc1-c1cc(C(=O)Nc2c(F)cccc2F)nn1C` [Example 17, 5-(2-Cyclopropyl-5-methyl-pyrimidin-4-yl)-N-(2,6-difluoro-phenyl)-1-methyl-1H-pyrazole-3-carboxylic acid amide], in assay [1], the inhibition at 10 µM lay within 50 to 70%. Regarding `Cc1ccc(-c2ncco2)cc1-c1cc(C(=O)Nc2c(F)cccc2F)nn1C` [Example 18, N-(2,6-Difluoro-phenyl)-1-methyl-5-(2-methyl-5-oxazol-2-yl-phenyl)-1H-pyrazole-3-carboxylic acid amide], the inhibition at 10 µM in assay [1] is less than 50%. Besides, in assay [2], the IC50 was in the range of 0.5 to 1 µM. The like results for `Cc1noc(-c2ccc(C)c(-c3cc(C(=O)Nc4c(F)cccc4F)nn3C)c2)n1` [Example 19, N-(2,6-Difluoro-phenyl)-1-methyl-5-[2-methyl-5-(3-methyl-[1,2,4]oxadiazol-5-yl)-phenyl]-1H-pyrazole-3-carboxylic acid amide] were, in that order, less than 50% and 1 to 5 µM. `Cc1ccc(C2CCOCC2)cc1-c1cc(C(=O)Nc2ccncc2F)nn1C` [Example 21, N-(3-Fluoro-pyridin-4-yl)-1-methyl-5-(2-methyl-5-tetrahydro-pyran-4-yl-phenyl)-1H-pyrazole-3-carboxylic acid amide]: the inhibition at 10 µM in assay [1] lay within 50 to 70%. On the same count and under the same terms, with `Cc1c(C(=O)Nc2ccncc2F)nn(C)c1-c1cccc(-c2nccs2)c1` [Example 29, N-(3-Fluoro-pyridin-4-yl)-1,4-dimethyl-5-(3-thiazol-2-yl-phenyl)-1H-pyrazole-3-carboxylic acid amide] the figure was more than 70%.
